PMC9785492 (Viruses, 2022)

Tested on: A/PR/8/34 with NA-H274Y
Type: cell-based, Influenza A virus (H1N1)

COC(=O)C1=C(C)NC(C)=C(C(=O)OCC(C)C)C1c1ccccc1[N+](=O)[O-] (stereo not shown) [Nisoldipine]
IC50: 5.94 ± 0.55 µM
